Where two headings read alike, the source gives them in different places.
System: NCI 60 cancer cell lines
Test: NCI anticancer screening over a panel of 60 cancer cells, single concentration 10 µM
Assay type: cell-based, human
Conditions: Homo sapiens, read-out: Growth inhibition (GI %)
Description: Ten final compounds 4a–j and five intermediates 2a–e have been selected by the National Cancer Institute (NCI) for anticancer screening over a panel of 60 cancer cells that cover a variety of histological tissues, including the central nervous system, leukemia, lung, colon, kidney, ovary, breast, and prostate, using the protocol established by the National Cancer Institute (NCI). In a primary screening, each compound was screened at a concentration of 10 µM.
Compounds 2a-e and 4a-j were selected by the National Cancer Institute (NCI) according to the protocol of the Compound Evaluation Branch of the National Cancer Institute, Bethesda, USA, for in vitro anticancer screening which refers in turn to apoptotic activity. The methodology of the NCI anticancer screening has been described in detail elsewhere (http://www.dtp.nci.nih.gov).

Measured: inhibition at 10 µM

CC(=O)c1cnn(-c2cc(=O)[nH]c3ccc(C)cc23)c1C [Compound 2b, 4-(4-Acetyl-5-methyl-1H-pyrazol-1-yl)-6-methylquinolin-2(1H)-one]
6.79%: NCI-H522, Non-small cell lung cancer NCI-H522, 10 μM
4.29%: Prostate cancer PC-3, 10 μM
6.75%: T47D, Breast cancer T-47D, 10 μM
6.93%: HOP-62, Non-small cell lung cancer HOP-62, 10 μM
19%: HL-60, Leukemia HL-60(TB), 10 μM | UO-31, Renal cancer UO-31, 10 μM
5.38%: LOX IMVI, Melanoma LOX IMVI, 10 μM
8.89%: CAKI-1, Renal cancer CAKI-1, 10 μM
< 5%: 786-0, Renal cancer 786-0, 10 μM | A498, Renal cancer A498, 10 μM | A549, Non-small cell lung cancer A549/ATCC, 10 μM | ACHN, Renal cancer ACHN, 10 μM | BT-549, Breast cancer BT-549, 10 μM | CCRF-CEM, Leukemia CCRF-CEM, 10 μM | COLO 205, Colon cancer COLO 205, 10 μM | DU-145, Prostate cancer DU-145, 10 μM | EKVX, Non-small cell lung cancer EKVX, 10 μM | HCC 2998, Colon cancer HCC-2998, 10 μM | HCT-15, Colon cancer HCT-15, 10 μM | HCT-116, Colon cancer HCT-116, 10 μM | HOP-92, Non-small cell lung cancer HOP-92, 10 μM | HT-29, Colon cancer HT29, 10 μM | Hs-578T, Breast cancer HS 578T, 10 μM | IGROV-1, Ovarian cancer IGROV1, 10 μM | K562, Leukemia K-562, 10 μM | KM12, Colon cancer KM12, 10 μM | Leukemia SR, 10 μM | MDA-MB-231, Breast Cancer MDA-MB 231/ATCC, 10 μM | MDA-MB-435, Melanoma MDA-MB-435, 10 μM | MDA-MB-468, Breast cancer MDA-MB-468, 10 μM | MOLT-4, Leukemia MOLT-4, 10 μM | Malme-3M, Melanoma MALME-3M, 10 μM | Melanoma M14, 10 μM | NCI-H23, Non-small cell lung cancer NCI-H23, 10 μM | NCI-H226, Non-small cell lung cancer NCI-H226, 10 μM | NCI-H322M, Non-small cell lung cancer NCI-H322M, 10 μM | NCI-H460, Non-small cell lung cancer NCI-H460, 10 μM | NCI/ADR-RES, Ovarian cancer NCI/ADR-RES, 10 μM | OVCAR-3, Ovarian cancer OVCAR-3, 10 μM | OVCAR-4, Ovarian cancer OVCAR-4, 10 μM | OVCAR-5, Ovarian cancer OVCAR-5, 10 μM | OVCAR-8, Ovarian cancer OVCAR-8, 10 μM | RPMI-8226, Leukemia RPMI-8226, 10 μM | RXF 393, Renal cancer RXF 393, 10 μM | SF-268, CNS Cancer SF-268, 10 μM | SF-295, CNS Cancer SF-295, 10 μM | SF-539, CNS Cancer SF-539, 10 μM | SK-MEL-2, Melanoma SK-MEL-2, 10 μM | SK-MEL-5, Melanoma SK-MEL-5, 10 μM | SK-MEL-28, Melanoma SK-MEL-28, 10 μM | SK-OV-3, Ovarian cancer SK-OV-3, 10 μM | SN12C, Renal cancer SN12C, 10 μM | SNB-19, CNS Cancer SNB-19, 10 μM | SNB-75, CNS Cancer SNB-75, 10 μM | SW-620, Colon cancer SW-620, 10 μM | TK-10, Renal cancer TK-10, 10 μM | UACC-62, Melanoma UACC-62, 10 μM | UACC-257, Melanoma UACC-257, 10 μM
5.31%: U-251, CNS Cancer U251, 10 μM

— article PMC12638379, “An innovative approach to development of new pyrazolylquinolin-2-one hybrids as dual EGFR and BRAF^V600E inhibitors” (Molecular Diversity, 2025)
